Measured values reported in ChEMBL document CHEMBL4610008, “Thiophene bioisosteres of GluN2B selective NMDA receptor antagonists: Synthesis and pharmacological evaluation of [7]annuleno[b]thiophen-6-amines” (Bioorg Med Chem, 2020).

Assays:
[1] = biological target: Glutamate receptor ionotropic, NMDA 2B (Homo sapiens, UniProt Q05586+Q13224); test: Displacement of [3H]ifenprodil from human recombinant GluN2B expressed in mouse L(tk-) cell membranes co-expressing GluN1a incubated for 120 mins by scintillation counting method
Glutamate receptor ionotropic, NMDA 2B, sequence (Q13224 whole entry, one chain of several): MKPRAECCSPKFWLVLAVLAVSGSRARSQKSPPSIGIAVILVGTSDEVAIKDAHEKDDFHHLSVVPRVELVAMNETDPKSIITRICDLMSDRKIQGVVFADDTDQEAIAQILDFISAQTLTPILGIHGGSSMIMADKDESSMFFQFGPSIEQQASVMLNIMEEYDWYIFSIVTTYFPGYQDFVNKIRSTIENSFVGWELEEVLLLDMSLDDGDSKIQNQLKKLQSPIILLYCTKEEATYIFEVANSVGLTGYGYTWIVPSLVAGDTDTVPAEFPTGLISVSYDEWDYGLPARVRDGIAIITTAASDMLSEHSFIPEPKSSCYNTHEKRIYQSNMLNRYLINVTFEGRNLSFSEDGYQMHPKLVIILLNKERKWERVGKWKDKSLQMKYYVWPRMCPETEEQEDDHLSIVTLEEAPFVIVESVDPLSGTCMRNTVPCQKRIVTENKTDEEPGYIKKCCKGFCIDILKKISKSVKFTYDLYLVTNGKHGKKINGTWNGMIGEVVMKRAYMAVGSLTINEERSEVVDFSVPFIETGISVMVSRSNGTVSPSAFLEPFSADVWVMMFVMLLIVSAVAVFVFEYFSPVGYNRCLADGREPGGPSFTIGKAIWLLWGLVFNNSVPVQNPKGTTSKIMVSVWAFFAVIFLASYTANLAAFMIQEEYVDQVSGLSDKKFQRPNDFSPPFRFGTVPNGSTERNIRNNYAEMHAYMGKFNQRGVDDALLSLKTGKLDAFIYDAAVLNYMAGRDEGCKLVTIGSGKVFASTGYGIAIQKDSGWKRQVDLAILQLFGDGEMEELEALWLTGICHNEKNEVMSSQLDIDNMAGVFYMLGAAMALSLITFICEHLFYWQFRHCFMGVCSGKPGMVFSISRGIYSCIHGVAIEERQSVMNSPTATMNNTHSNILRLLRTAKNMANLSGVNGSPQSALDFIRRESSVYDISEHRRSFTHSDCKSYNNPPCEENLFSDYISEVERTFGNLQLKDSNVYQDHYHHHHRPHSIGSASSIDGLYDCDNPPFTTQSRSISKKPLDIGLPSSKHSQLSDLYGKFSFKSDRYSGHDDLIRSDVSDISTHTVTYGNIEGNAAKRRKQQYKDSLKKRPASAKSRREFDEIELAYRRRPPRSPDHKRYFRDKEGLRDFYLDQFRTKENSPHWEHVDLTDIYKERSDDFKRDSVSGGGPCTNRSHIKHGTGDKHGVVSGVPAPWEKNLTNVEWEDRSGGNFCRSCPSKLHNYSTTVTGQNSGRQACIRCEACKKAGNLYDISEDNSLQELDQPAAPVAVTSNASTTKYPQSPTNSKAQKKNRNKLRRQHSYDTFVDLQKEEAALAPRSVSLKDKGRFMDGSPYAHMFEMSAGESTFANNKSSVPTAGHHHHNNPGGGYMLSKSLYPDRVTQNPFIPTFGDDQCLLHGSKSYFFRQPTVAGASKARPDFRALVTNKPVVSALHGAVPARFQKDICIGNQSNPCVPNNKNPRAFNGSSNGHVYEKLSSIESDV

[2] = biological target: Sigma non-opioid intracellular receptor 1 (Cavia porcellus, UniProt Q60492); test: Displacement of [3H]-(+)-pentazocine from sigma1 receptor in guinea pig brain membranes incubated for 120 mins by scintillation counting method; format: cell membranes, Membrane
Sigma non-opioid intracellular receptor 1, sequence (Q60492 whole entry): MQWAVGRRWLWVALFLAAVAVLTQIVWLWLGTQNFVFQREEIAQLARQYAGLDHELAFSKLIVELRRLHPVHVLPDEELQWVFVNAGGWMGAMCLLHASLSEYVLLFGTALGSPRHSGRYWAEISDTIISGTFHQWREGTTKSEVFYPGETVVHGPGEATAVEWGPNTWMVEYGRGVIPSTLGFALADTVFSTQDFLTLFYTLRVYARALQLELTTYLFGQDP

[3] = biological target: T1, Sigma intracellular receptor 2 (Rattus norvegicus, UniProt Q5U3Y7); test: Displacement of [3H]-di-o-tolylguanidine from sigma2 receptor in rat liver membranes incubated for 120 mins in the presence of sigma1 receptor ligand (+)-pentazocine by scintillation counting method; format: cell membranes, Membrane
T1 sequence (Q5U3Y7 whole entry): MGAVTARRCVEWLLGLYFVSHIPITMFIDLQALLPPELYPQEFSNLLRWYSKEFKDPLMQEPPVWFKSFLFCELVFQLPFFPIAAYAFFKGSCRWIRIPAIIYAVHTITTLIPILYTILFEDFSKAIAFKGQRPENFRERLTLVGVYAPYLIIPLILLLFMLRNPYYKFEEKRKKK

[4] = Selectivity index, ratio of Ki for sigma1 receptor in guinea pig brain membranes to Ki for human GluN2B expressed in mouse L(tk-) cell membranes co-expressing GluN1a; format: cell-based
[5] = Selectivity index, ratio of Ki for sigma2 receptor in rat liver membranes to Ki for human GluN2B expressed in mouse L(tk-) cell membranes co-expressing GluN1a; format: cell-based
[6] = Cytoprotection against glutamate/glycine-induced cytotoxicity against mouse LTK cells expressing GluN1a/GluN2B assessed as inhibition of cell death incubated for 12 hrs by LDH assay; format: functional, cell-based

| Structure (SMILES) | Ki [1] [nM] | Ki [2] [nM] | Ki [3] [nM] | Ratio Ki [4] | Ratio Ki [5] | IC50 [6] [nM] |
| --- | --- | --- | --- | --- | --- | --- |
| OCc1cc2c(s1)CCC(NCCCCc1ccccc1)CC2 (configuration not stated) | 764 | 84 | 73 | – | – | – |
| CN(CCc1ccccc1)C1CCc2ccsc2CC1 (configuration not stated) | 130 | 42 | 63 | – | – | – |
| CN(Cc1ccccc1)C1CCc2ccsc2CC1 (configuration not stated) | 72 | 49 | 91 | – | – | – |
| COc1ccc2c(c1)CC[C@H](NCCCc1ccccc1)C[C@@H]2O (relative stereo) | – | – | – | – | – | 12 |
| CCN(CCc1ccccc1)C1CCc2ccsc2CC1 (configuration not stated) | 196 | 59 | 141 | – | – | – |
| Oc1ccc(-c2cc3c(s2)CCC(NCCCc2ccccc2)CC3)cc1 (configuration not stated) | 60 | 181 | 63 | – | – | – |
| CCN(Cc1ccccc1)C1CCc2ccsc2CC1 (configuration not stated) | 61 | 60 | 149 | – | – | – |
| CN(CCCc1ccccc1)C1CCc2cc(CO)sc2CC1 (configuration not stated) | 141 | 6.4 | 21 | – | – | – |
| OCc1cc2c(s1)CCC(NCCCc1ccccc1)CC2 (configuration not stated) | 183 | 61 | 30 | – | – | – |
| CN(CCc1ccccc1)C1CCc2cc(CO)sc2CC1 (configuration not stated) | 726 | 56 | 48 | – | – | – |

The next lines start with results.

| Ki [1] [nM] | Ki [2] [nM] | Ki [3] [nM] | Structure (SMILES) | Ratio Ki [4] | Ratio Ki [5] | IC50 [6] [nM] |
| --- | --- | --- | --- | --- | --- | --- |
| 2.1 | – | – | Clc1ccc2c(c1)CCC(NCCCc1ccccc1)CC2 (configuration not stated) | – | – | – |
| 33 | 133 | 56 | c1ccc(CCNC2CCc3ccsc3CC2)cc1 (configuration not stated) | – | – | – |
| 13 | 41 | 43 | Brc1cc2c(s1)CCC(NCCCc1ccccc1)CC2 (configuration not stated) | 3 | 3 | – |
| 5.9 | 187 | 5.1 | c1ccc(CCCNC2CCc3ccsc3CC2)cc1 (configuration not stated) | – | – | – |
| 9 | 17 | 12 | CN(CCCCc1ccccc1)C1CCc2ccsc2CC1 (configuration not stated) | 1.5 to 2 | 1.5 to 2 | – |
| 11 | 62 | 5.7 | c1ccc(CCCCNC2CCc3ccsc3CC2)cc1 (configuration not stated) | – | – | – |
| 33 | 12 | 46 | CCN(CCCCc1ccccc1)C1CCc2ccsc2CC1 (configuration not stated) | – | – | – |
| 23 | 14 | 13 | Brc1cc2c(s1)CCC(NCCCCc1ccccc1)CC2 (configuration not stated) | – | – | – |
| 51 | 17 | 33 | CCN(CCCc1ccccc1)C1CCc2ccsc2CC1 (configuration not stated) | – | – | – |
| 6 | 10 | 13 | CN(CCCc1ccccc1)C1CCc2ccsc2CC1 (configuration not stated) | 2 | 2 | – |
